Results taken from patent US12129490B2, “Methods for generating hepatocytes and cholangiocytes from pluripotent stem cells” (UNIVERSITY HEALTH NETWORK, priority 2018, dated 2024).
Where “and” joins values, the source holds several entries; their conditions need not be identical. Equal values may be shown once.

Columns and labels:
[1] = tested on: hESC-derived hepatic aggregates; assay: Intracellular flow cytometry of AFP+ and ALB+ cells in hepatic aggregates; assay type: cell-based, human; conditions: day 44 aggregates
Protocol: The proportion of ALB positive cells, on the other hand, was higher in the cAMP-treated population (89.5+/−5.6% vs 82.3+/−3.0%, P<0.05 (mean+/−SD, n=3).
Flow cytometric analyses were performed as described previously^45. For cell surface markers, staining was carried out in PBS with 10% FCS. For intracellular proteins, staining was performed on cells fixed with 4% paraformaldehyde (Electron Microscopy Science, Hatfield, PA, USA) in PBS. Cells were permeabilized with 90% ice-cold methanol for 20 minutes for Sox17 and FoxA2 staining as previously described^45. Albumin and alpha-fetoprotein staining was performed in PBS with 10% FCS and 0.5% saponin (Sigma). Stained cells were analyzed using an LSRII flow cytometer (BD).

[2] = biological target: T1, CYP2B6 (Homo sapiens, UniProt P20813); assay: CYP2B6 activity, hydroxylation of bupropion by HPLC; assay type: in vitro ADME; conditions: 8-Br-cAMP-treated cells versus primary hepatocytes
T1 sequence (P20813 1-491): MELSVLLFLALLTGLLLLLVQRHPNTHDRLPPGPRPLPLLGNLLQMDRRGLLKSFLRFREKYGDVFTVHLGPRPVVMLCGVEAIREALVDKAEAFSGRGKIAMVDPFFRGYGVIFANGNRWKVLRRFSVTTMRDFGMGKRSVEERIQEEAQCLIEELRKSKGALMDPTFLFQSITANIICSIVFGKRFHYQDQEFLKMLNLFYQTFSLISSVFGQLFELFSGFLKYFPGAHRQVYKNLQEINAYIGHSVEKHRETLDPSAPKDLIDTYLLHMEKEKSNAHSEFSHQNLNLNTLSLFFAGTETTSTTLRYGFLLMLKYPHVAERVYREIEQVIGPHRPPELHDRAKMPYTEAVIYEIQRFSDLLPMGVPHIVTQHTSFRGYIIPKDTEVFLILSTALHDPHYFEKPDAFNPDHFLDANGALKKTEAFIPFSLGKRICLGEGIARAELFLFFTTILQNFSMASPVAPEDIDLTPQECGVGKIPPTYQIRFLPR
Protocol: Formation of the metabolite O-hydroxy-bupropion from bupropion was measured by HPLC. Activity is presented per 50,000 cells, (n=3).

[3] = biological target: T2, CYP1A2 (Homo sapiens, UniProt P05177); assay: CYP1A2 activity, phenacetin metabolism by HPLC; conditions: 8-Br-cAMP-treated cells versus primary cultured hepatocytes
T2 sequence (P05177 1-516): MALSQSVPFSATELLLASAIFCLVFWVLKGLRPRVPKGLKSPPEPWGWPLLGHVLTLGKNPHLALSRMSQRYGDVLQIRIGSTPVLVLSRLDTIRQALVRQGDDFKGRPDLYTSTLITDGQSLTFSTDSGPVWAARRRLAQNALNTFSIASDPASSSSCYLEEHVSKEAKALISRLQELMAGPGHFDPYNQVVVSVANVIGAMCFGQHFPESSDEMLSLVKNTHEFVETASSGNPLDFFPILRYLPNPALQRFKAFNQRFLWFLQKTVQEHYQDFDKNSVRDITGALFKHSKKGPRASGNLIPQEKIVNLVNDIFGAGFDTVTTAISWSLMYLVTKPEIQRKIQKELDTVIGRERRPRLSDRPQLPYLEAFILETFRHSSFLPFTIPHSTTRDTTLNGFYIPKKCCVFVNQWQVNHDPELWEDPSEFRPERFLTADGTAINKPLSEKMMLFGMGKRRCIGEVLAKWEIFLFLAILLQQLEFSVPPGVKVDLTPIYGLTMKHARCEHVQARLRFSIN

O-deethylation of phenacetin (CYP1A2 activity) [3]: as high as primary cultured hepatocytes
Compound: Nc1ncnc2c1nc(Br)n2[C@@H]1O[C@@H]2COP(=O)(O)O[C@H]2[C@H]1O [8-Br-cAMP, 8-bromoadenosine-3′5″-cyclic monophosphate]
proportion of AFP+ cells [1]: 26% and 34.5+/−12.4%
proportion of ALB+ cells [1]: 89.5+/−5.6%
CYP2B6 activity, hydroxylation of bupropion [2]: comparable to those found in primary hepatocytes
